# Source: patent publication US10663471B2, “Fluorescent sensors of peroxynitrite targeted to the endoplasmic reticulum” (The University of Kansas, priority 2018, dated 2020)
# Experiments:
# RAW 264.7 macrophages [1] = experiment: subcellular localization by confocal laser scanning microscopy; type: cell-based; conditions: for ratio of cytosolic (ER-associated) to nuclear fluorescence: 10 μM, 4 h, living RAW 264.7 macrophages
# Source text: The pro-fluorophore Compounds 1-8 can cause fluorescence in living cells upon reacting with peroxynitrite. The ability of ER-targeted sensors to detect endogenous peroxynitrite during phagocytosis was further investigated by confocal laser scanning microscopy. […] The left panels of FIGS. 7A-7B show the DIC micrographs and the right panels show the confocal laser scanning micrographs. […] When the cells were additionally treated with DNP-modified amino tentagel beads (10 micron) bound to anti-DNP IgG, cellular green fluorescence is observed and localized to the endoplasmic reticulum. In FIG. 7B, the white arrows point at phagocytosed beads. The scale bar in FIG. 7B is 25 microns. The right panel of FIG. 7A is relatively blank (white instead of black), and then fluorescence is seen in the right panel of FIG. 7B, thereby showing that there is localization to the ER by the compounds of the present invention.
# After correcting for differences in brightness, this interpretation was further supported by analysis of cells treated with Compounds 1-8 by flow cytometry.
# Analysis of Subcellular Localization.
# RAW264.7 macrophages were scraped to passage and diluted to 300,000 cells/mL in complete medium. These cells were plated in an ibiTreat-coated 8-well μ-Slide (ibidi, 300 μL of media per well) and incubated at 37° C. overnight. The next day, the wells were washed once with complete media before treatment with fluorescent probes. Fluorescent sensors in DMSO stock solutions were diluted into complete media and added to cells. ER-Tracker Blue-White DPX (ThermoFisher Scientific) was diluted in DMSO to 100 μM followed by 1:1000 dilution with complete media. Labeled tentagel beads were added to cells at 200,000 beads/mL. Cells were incubated for 4 h at 37° C. followed by imaging by confocal microscopy (without washing). Phagocytosed beads were identified by morphology such as compression of the nucleus around the bead and adjacent fluorescence of ER membranes. […] To quantify the ratio of cytosolic to nuclear fluorescence (FIG. 8), Leica LAS X 2.0.1 software was used to define regions of interest (ROI) within the cytosol, nucleus, and cell-free regions. Mean fluorescence per pixel was calculated using Leica LAS X 2.0.1 software and plotted with SD (N=20). ROI from cell-free regions were used to subtract background fluorescence for comparison.
# RAW 264.7 macrophages [2] = experiment: detection of peroxynitrite resulting from phagocytosis by flow cytometry; type: cell-based; conditions: for cellular association (cellular fluorescence per sensor brightness): FIG. 8C; for response of cellular fluorescence to SIN-1: SIN-1 50 μM, HPF 10 μM in HBSS, Fl-B 50 μM in DMEM
# Source text: The ability of the pro-fluorophore Compounds 1-8 to generate cellular fluorescence was studied. The protocol included treating living RAW 264.7 macrophages with pro-fluorophore Compounds 1-8 and quantified cellular fluorescence by flow cytometry (FIGS. 6A-6B). To trigger phagocytosis and production of endogenous peroxynitrite, these cells were additionally treated with chemically-modified amino-tentagel beads. These beads were either covalently derivatized with the fluorophore Pacific Blue, to provide a less immunostimulatory control, or covalently conjugated with DNP and non-covalently bound to anti-DNP IgG, to promote bead phagocytosis as shown in FIG. 9. To provide a spectrally orthogonal marker, lysine residues of the antibody were conjugated to PB to allow labeled beads to be distinguished from cells by flow cytometry. […] Cells were treated (4 h) with sensor Compounds 1-8 (10 μM) and 10-micron amino-tentagel beads modified either with Pacific Blue-SE (Beads-PB) or 2,4-DNP-X-SE. To the DNP-modified beads was additionally added rabbit anti-DNP IgG (Beads/IgG), conjugated to Pacific Blue via lysines, to stimulate phagocytosis.
# The ER-targeting pro-fluorophores were compared with non-ER-targeted sensors of peroxynitrite: hydroxyphenyl fluorescein (HPF) and fluorescein boronate (Fl-B). Since the fluorescence of HPF can be affected by serum proteins, cells were treated with this compound in Hank's balanced salt solution (HBSS). […] In FIG. 6B, the cells were treated with Compound 3 in DMEM media or HBSS and compared with treatment with hydroxyphenyl fluorescein (HPF, 10 μM in HBSS) and fluorescein boronate (Fl-B, 50 μM in DMEM). [SIN-1]=50 μM. [FeTMPyP]=50 μM.
# Detection of Peroxynitrite Resulting from Phagocytosis by Flow Cytometry.
# RAW264.7 macrophages were seeded on a non-treated 96-well plate (USA Scientific) in complete media (40,000 cells, 200 μL per well) 16 h prior to treatment. These cells adhere to treated plastic very strongly, and the use of non-treated plates was required for subsequent release and analysis of cells by flow cytometry. Fluorescent sensors were diluted from DMSO stock solutions into complete media (final concentration of probe=10 μM, 0.5% DMSO). Fluorescein and Compound 3 were added to Hank's Balanced Salt Solution (HBSS, Corning, pH 7.4). Labeled tentagel beads were added to this complete media or HBSS (200,000 beads/mL). The original media was carefully removed from all wells by aspiration and replaced with the treatment media containing beads and sensors (200 μL per well) in triplicate. After incubation of treated cells at 37° C. for 4 h, aqueous propidium iodide (PI, 20 μL, 30 μM, Thermo Fisher Scientific) was added to each well (final concentration of PI=3 μM). A p200 multichannel pipette was used to release the cells from the plate via sheer force. Cellular fluorescence was analyzed by flow cytometry. Viability was determined by gating based on staining of cells with compromised membranes with PI. Tentagel beads take up significant amounts of PI, making them brighter than cells at 690/50 nm. Additionally, labeling of tentagel beads with Pacific Blue makes them brighter than cells when excited at 405 nm, and additional excitation at this wavelength was used to assure that all beads were excluded from gating of live cells. Median values of fluorescence of living cells in the FITC-A channel (525/40 nm) were compared and plotted.
# [3] = photophysical properties: quantum yields relative to rhodamine 6G in n-octanol, molar extinction coefficients in DMSO; type: physicochemical
# Source text: Optical spectroscopic properties of the pro-fluorophore Compound 3, as a representative probe, and the rhodol product (Compound 9), in n-octanol as a mimic of ER membranes, are shown in FIG. 2.
# The fluorescence emission of Compounds 1-8 was quenched by up to 1800-fold (for Compound 3, Φ=0.0004) compared to Compound 9 (Φ=0.72). However, the brightness of these sensors, calculated as the product of their measured molar extinction coefficients and quantum yields, varied by up to 30-fold (See FIGS. 2A and 2B).
# cells in culture = experiment: cytotoxicity in culture (FIG. 5); type: cell-based; conditions: 10 μM, 48 hours in culture
# [4] = limit of detection of peroxynitrite by fluorescence spectroscopy; conditions: sensor 50 nM in PBS pH 7.4, 0.1% DMSO, 5 min, 23° C.
# Experimental: (PBS, pH 7.4, 0.1% DMSO).
# Determination of the Limit of Detection of Peroxynitrite by Compound 3.
# The concentration of a stock solution of pure peroxynitrite was measured by absorbance spectroscopy and diluted with aq. NaOH (0.1 M) to provide additional stock solutions. […] The detection limit of Compound 3 was determined based on a reported method (Yu, F., Li, P., Wang, B., and Han, K. (2013) Reversible near-infrared fluorescent probe introducing tellurium to mimetic glutathione peroxidase for monitoring the redox cycles between peroxynitrite and glutathione in vivo, J. Am. Chem. Soc. 135, 7674-7680; Shortreed, M., Kopelman, R., Kuhn, M., and Hoyland, B. (1996) Fluorescent fiber-optic calcium sensor for physiological measurements, Anal. Chem. 68, 1414-1418). The fluorescence emission at 526 nm was normalized between the minimum intensity (0 nM peroxynitrite, Fmin) and the maximum intensity (500 nM peroxynitrite, Fmax) using the following equation: (F−Fmin)/(Fmax−Fmin). […]
# [5] = sensor 50 nM, PBS pH 7.4, 5 min, 23° C.
# Experimental: Maximal fluorescence emission was measured by fluorescence spectroscopy after treatment for 5 min at 23° C. (PBS, pH 7.4, 0.1% DMSO).
# A normalized DMSO stock solution of Compound 3 in DMSO (50 μM) was diluted 1:1000 with PBS (pH 7.4) to yield a 50 nM solution (0.1% DMSO) in triplicate. RNS and ROS were generated as described below and diluted into the solution in volumes that changed the overall volume by 0.5% or less. These solutions were mixed, incubated at room temperature for 5 min, and transferred to a quartz cell for analysis by fluorescence spectroscopy.
# The concentration of peroxynitrite was measured by absorbance spectroscopy (ε=1670 M^−1cm^−1 at 302 nm in aq. NaOH, 0.1 M). To provide stock solutions, peroxynitrite was diluted with NaOH (aq., 0.1 M). These solutions were diluted 1:1000 into solutions of Compound 3 for analysis. […] The concentration of ClO^− was verified by absorbance spectroscopy (ε=350 M^−1cm^−1 at 209 nm) in water.
# Hydroxyl radical (.OH) was generated using the Fenton reaction (Jia, X., Chen, Q., Yang, Y., Tang, Y., Wang, R., Xu, Y., Zhu, W., and Qian, X. (2016) FRET-Based Mito-Specific Fluorescent Probe for Ratiometric Detection and Imaging of Endogenous Peroxynitrite: Dyad of Cy3 and Cy5, J. Am. Chem. Soc. 138, 10778-10781). […] The concentration of H2O2 was verified by absorbance spectroscopy (ε=43.6 M^−1cm^−1 at 240 nm) in water. […]
# [6] = cited from earlier work
compound,measurement,setting,value
Cc1cc(N(C)c2cc3oc4cc(=O)c(F)cc-4c(-c4ccccc4C)c3cc2F)ccc1O [Compound 2],ratio of cytosolic (ER-associated) to nuclear fluorescence,RAW 264.7 macrophages [1],3.7
Cc1ccccc1-c1c2cc(F)c(=O)cc-2oc2cc(N(C)c3cc(C(C)(C)C)c(O)c(C(C)(C)C)c3)c(F)cc12 [Compound 4],cellular association (cellular fluorescence per sensor brightness),RAW 264.7 macrophages [2]; flow cytometry,lower cellular association than Compound 2
"O=C1OC2(c3ccc(O)cc3Oc3cc(Oc4ccc(O)cc4)ccc32)c2ccccc21 (stereo not drawn) [HPF, hydroxyphenyl fluorescein, reference compound]",response of cellular fluorescence to SIN-1,RAW 264.7 macrophages [2],responded to SIN-1 and could increase cellular fluorescence
Cc1ccccc1-c1c2cc(F)c(=O)cc-2oc2cc(N(C)c3cc(Cl)c(O)c(Cl)c3)c(F)cc12 [Compound 8],cellular association (cellular fluorescence per sensor brightness),RAW 264.7 macrophages [2]; flow cytometry,lowest cellular association
COc1cc(N(C)c2cc3oc4cc(=O)c(F)cc-4c(-c4ccccc4C)c3cc2F)ccc1O [Compound 5],ratio of cytosolic (ER-associated) to nuclear fluorescence,RAW 264.7 macrophages [1],2.6
Cc1ccccc1-c1c2cc(F)c(=O)cc-2oc2cc(N(C)c3cc(C)c(O)c(C)c3)c(F)cc12 [Compound 3],"conversion by SIN-1 to Compound 9, analysis by HPLC",HPLC,cleanly convert
same,pseudo-first-order half-time t1/2 of reaction with SIN-1,"buffer, pH 7.4",49 s
same,cytosolic fluorescence after addition of antibody-opsonized beads,"RAW 264.7 macrophages [1]; 10 μM sensor, tentagel beads/IgG, confocal microscopy",dramatic increase in localized cytosolic fluorescence
same,ratio of cytosolic (ER-associated) to nuclear fluorescence,RAW 264.7 macrophages [1],6.7
same,fluorescence enhancement on co-treatment with FeTMPyP,"RAW 264.7 macrophages [1]; confocal microscopy, data not shown",substantially reduced
same,accumulation in the ER by co-localization with ER tracker blue-white DPX,RAW 264.7 macrophages [1]; data not shown,confirmed to accumulate in the ER
same,quantum yield Φ,[3],0.0004
same,cytotoxicity,cells in culture,negligible cytotoxicity
same,approximate limit of detection: peroxynitrite giving a 2-fold increase in fluorescence intensity,[4],~40 nM
same,decrease of cellular fluorescence on co-treatment with peroxynitrite decomposition catalyst FeTMPyP,"RAW 264.7 macrophages [2]; IgG-bound beads, FeTMPyP 50 μM",over 50%
same,detection of peroxynitrite upon mild treatment of cells with antibody-opsonized tentagel beads,"RAW 264.7 macrophages [2]; flow cytometry, FIG. 6B",could detect peroxynitrite
same,concentration in cells relative to Compound 5,"RAW 264.7 macrophages [2]; flow cytometry, corrected for brightness, identical conditions (FIG. 8C)",4 fold
same,change in cellular fluorescence upon addition of IgG-coated beads,"RAW 264.7 macrophages [2]; sensor 10 μM, 4 h, Beads/IgG, flow cytometry",10 fold
same,"selectivity for peroxynitrite versus perchlorite, hydroxyl radical, superoxide, peroxides, nitric oxide",[5],highly selective for peroxynitrite
"fluorescein boronate [Fl-B, reference compound]",response of cellular fluorescence to SIN-1,RAW 264.7 macrophages [2],responded to SIN-1 and could increase cellular fluorescence
O=NOO [peroxynitrous acid],pKa,[6],6.84
CNc1cc2oc3cc(=O)c(F)cc-3c(-c3ccccc3C)c2cc1F [Compound 9],accumulation in the ER by co-localization with ER tracker blue-white DPX,RAW 264.7 macrophages [1]; data not shown,confirmed to accumulate in the ER
same,time to extensive loss of cellular fluorescence after washing cells once with complete media (efflux),RAW 264.7 macrophages [1]; data not shown,10 to 20 min
same,quantum yield Φ,[3],0.72
